Assay: phosphorescence of singlet oxygen (near IR emission spectrum)
Details: in CD2Cl2 at room temperature, λexc=670 nm
Procedure: The spectrum was recorded from a suspension of the photosensitizing nanomaterial in CD2Cl2 at room temperature, λexc=670 nm.
The singlet oxygen ^1O2 is produced by reaction of triplet oxygen (^3O2) with the monomeric form of the silicon (IV) phthalocyanine chloride complex, which is present on the surface of the zeolite L crystals, according to an example of the present disclosure. The generation of the singlet oxygen ^1O2 was investigated by measuring the near IR emission spectrum of the photosensitizing nanomaterials 40 in a suspension with deuteriated dichloromethane as the solvent (CD2Cl2). […] No characteristic phosphorescence can be detected.
Fluorescence emission and excitation spectra of the photosensitizing nanomaterial 40 suspended in CH2Cl2 were recorded by using a HORIBA Jobin-Yvon IBH FL-322 Fluorolog 3 spectrometer. The phosphorescence spectrum of ^1O2 in CD2Cl2 was recorded by using a HORIBA Jobin-Yvon IBH FL-322 Fluorolog 3 spectrometer equipped with an air-cooled Hamamatsu H9170-75 (InP/InGaAs) PMT detector.

**Q.** Which “generation of singlet oxygen (1O2), characteristic phosphorescence” value does the source give for `Cl[Si]1(Cl)n2c3c4ccccc4c2N=C2N=C(N=c4c5ccccc5c(n41)=NC1=NC(=N3)c3ccccc31)c1ccccc12` [silicon (IV) phthalocyanine chloride, Si(IV) phthalocyanine dichloride] here?
**A.** The value was “does not show any generation of the singlet oxygen”.

From patent US8193343B2, “Manufacture and products thereof of photosensitizing nanomaterials and their use in photodynamic treatment” (Westfalische Wilhelms-Universitat Munster, priority 2009, dated 2012)
